From patent publication US9120791B2, “Indolizine compounds, a process for their preparation and pharmaceutical compositions containing them” (LES LABORATOIRES SERVIER, priority 2012, dated 2015) come the findings set out here.

Counter-ions that a name gives are not always drawn. Like-named read-outs stand apart in the source and are kept apart here.

Usually IC50 stands for the concentration that gives 50% inhibition.

Test [1] relates to RS4;11 leukaemia tumour line. Briefly: In vitro cytotoxicity (Microculture Tetrazolium Assay, 48 hours). It counts as cell-based. To be noted: RS4;11 cells, 48 hours exposure, MTT, concentration that inhibits cell viability by 50%, read-out: IC50 (nM) MTT RS4. Here is the method:
The cytotoxicity studies were carried out on the RS4;11 leukaemia tumour line.
The cells are distributed onto microplates and exposed to the test compounds for 48 hours.

Another test concerns the target Bcl-2 protein (Homo sapiens (Human), UniProt P10415). Briefly: Inhibition of Bcl-2 by the fluorescence polarisation technique. It counts as binding. To be noted: read-out: IC50 (nM) Bcl-2 FP. Here is the method:
The fluorescence polarisation tests were carried out on microplates (384 wells). […] After incubation for 2 hours, the fluorescence polarisation is measured.
On the technique in general: In fluorescence polarisation assays a small probe gives low polarisation when free and higher when bound to something large.

The mark [2] stands for this setting: fluorescence polarisation test, concentration that inhibits fluorescence polarisation by 50%.

Sequence of Bcl-2 protein (P10415 whole entry): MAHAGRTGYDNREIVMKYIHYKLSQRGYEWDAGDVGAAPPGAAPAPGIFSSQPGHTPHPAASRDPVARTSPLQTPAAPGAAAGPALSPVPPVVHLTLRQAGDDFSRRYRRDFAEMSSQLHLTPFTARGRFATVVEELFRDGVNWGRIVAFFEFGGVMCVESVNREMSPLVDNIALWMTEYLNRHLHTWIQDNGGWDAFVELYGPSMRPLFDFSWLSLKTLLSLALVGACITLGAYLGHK

As for `Cn1ncc2cc(N(C(=O)c3cc(-c4cc(Cl)ccc4C(=O)N4Cc5ccccc5C[C@H]4CN4CCOCC4)n4c3COCC4)c3ccc(O)cc3)ccc21` [Example 101, 6-(5-Chloro-2-{[(3S)-3-(morpholin-4-ylmethyl)-3,4-dihydroisoquinolin-2(1H)-yl]carbonyl}phenyl)-N-(4-hydroxyphenyl)-N-(1-methyl-1H-indazol-5-yl)-3,4-dihydro-1H-pyrrolo[2,1-c][1,4]oxazine-8-carboxamide hydrochloride], the figures for the IC50 (in test [1] (Homo sapiens); at Bcl-2 protein (setting [2])) were 22.1 nM and 5 nM, respectively.

As to `C[C@H]1COCCN1C[C@@H]1Cc2ccccc2CN1C(=O)c1cc2c(cc1-c1cc(C(=O)N(c3ccc(O)cc3)c3ccc4c(ccn4C)c3)c3n1CCCC3)OCO2` [Example 16, N-(4-Hydroxyphenyl)-N-(1-methyl-1H-indol-5-yl)-3-{6-[((3S)-3-{[(3S)-3-methylmorpholinyl]methyl}-3,4-dihydro-2(1H)-isoquinolinyl)carbonyl]-1,3-benzodioxol-5-yl}-5,6,7,8-tetrahydro-1-indolizine carboxamide hydrochloride], the values for the IC50 (in test [1]; at Bcl-2 protein) were 23.4 nM and 18 nM, respectively.

In the case of `N#Cc1cccc(N(C(=O)c2cc(-c3cc(Cl)ccc3C(=O)N3Cc4ccccc4C[C@H]3CN3CCOCC3)n3c2CCCC3)c2ccc(O)cc2)c1` [Example 119, 3-(5-Chloro-2-{[(3S)-3-(morpholin-4-ylmethyl)-3,4-dihydroisoquinolin-2(1H)-yl]carbonyl}phenyl)-N-(3-cyanophenyl)-N-(4-hydroxyphenyl)-5,6,7,8-tetrahydroindolizine-1-carboxamide hydrochloride], the IC50 in test [1] (Homo sapiens) came to 31.6 nM; on Bcl-2 protein (setting [2]), 9 nM.

Regarding `CC(C)N1CCc2cc(N(C(=O)c3cc(-c4cc5c(cc4C(=O)N4Cc6ccccc6C[C@H]4CN4CCOCC4)OCO5)n4ccccc34)c3ccc(O)cc3)ccc21` [Example 64, N-(4-Hydroxyphenyl)-N-(1-isopropyl-2,3-dihydro-1H-indol-5-yl)-3-{6-[((3S)-3-(4-morpholinylmethyl)-3,4-dihydro-2(1H)-isoquinolinyl)carbonyl]-1,3-benzodioxol-5-yl}-1-indolizine carboxamide hydrochloride], the values for the IC50 (in test [1] (Homo sapiens); on Bcl-2 protein (setting [2])) were 23.3 nM and 31 nM, respectively.

As to `Cn1ccc2cc(N(C(=O)c3cc(-c4cc(C(F)(F)F)ccc4C(=O)N4Cc5ccccc5C[C@H]4CN4CCOCC4)n4c3CCCC4)c3ccc(O)cc3)ccc21` [Example 47, N-(4-Hydroxyphenyl)-N-(1-methyl-1H-indol-5-yl)-3-[2-[((3S)-3-(4-morpholinylmethyl)-3,4-dihydro-2(1H)-isoquinolinyl)carbonyl]-5-(trifluoromethyl)-phenyl]-5,6,7,8-tetrahydro-1-indolizine carboxamide hydrochloride], the IC50 stood at 194 nM in test [1] (Homo sapiens) and 58 nM on Bcl-2 protein (setting [2]).

`CN1CCN(C[C@@H]2Cc3ccccc3CN2C(=O)c2cc3c(cc2-c2cc(C(=O)N(c4ccc(O)cc4)c4ccc5c(ccn5C)c4)c4n2CCCC4)OCO3)CC1` [Example 13, N-(4-Hydroxyphenyl)-N-(1-methyl-1H-indol-5-yl)-3-{6-[((3S)-3-[(4-methyl-1-piperazinyl)methyl]-3,4-dihydro-2(1H)-isoquinolinyl)carbonyl]-1,3-benzodioxol-5-yl}-5,6,7,8-tetrahydro-1-indolizine carboxamide bis(hydrochloride)]: the IC50 in test [1] (Homo sapiens) was 8.63 nM; at Bcl-2 protein (setting [2]), 12 nM.

Consider `CN1CCN(C[C@@H]2Cc3ccccc3CN2C(=O)c2ccc(Cl)cc2-c2cc(C(=O)N(c3ccc(O)cc3)c3ccc4c(ccn4C)c3)c3ccccn23)CC1` [Example 65, 3-{5-Chloro-2-[((3S)-3-[(4-methyl-1-piperazinyl)methyl]-3,4-dihydro-2(1H)-isoquinolinyl)carbonyl]phenyl}-N-(4-hydroxyphenyl)-N-(1-methyl-1H-indol-5-yl)-1-indolizine carboxamide bis(hydrochloride)], for which the IC50 came to 9.19 nM in test [1] (Homo sapiens) and 14 nM at Bcl-2 protein (setting [2]).

Turning to `COc1ccc(C(=O)N2Cc3ccccc3C[C@H]2CN2CCOCC2)c(-c2cc(C(=O)N(c3ccc(O)cc3)c3ccc4c(ccn4C)c3)c3n2CCCC3)c1` [Example 33, N-(4-Hydroxyphenyl)-3-{5-methoxy-2-[((3S)-3-(4-morpholinylmethyl)-3,4-dihydro-2(1H)-isoquinolinyl)carbonyl]phenyl}-N-(1-methyl-1H-indol-5-yl)-5,6,7,8-tetrahydro-1-indolizine carboxamide hydrochloride], the half-inhibitory concentration (IC50) in test [1] (Homo sapiens) was found to be 12.2 nM; on Bcl-2 protein (setting [2]), 23 nM.

Regarding `Cl.[2H]C1([2H])Oc2cc(C(=O)N3Cc4ccccc4C[C@H]3CN3CCOCC3)c(-c3cc(C(=O)N(c4ccc(O)cc4)c4ccc5c(cnn5C)c4)c4n3CCCC4)cc2O1` [Example 50, N-(4-Hydroxyphenyl)-N-(1-methyl-1H-indazol-5-yl)-3-{2,2-dideuterio-6-[((3S)-3-(4-morpholinylmethyl)-3,4-dihydro-2(1H)-isoquinolinyl)carbonyl]-1,3-benzodioxol-5-yl}-5,6,7,8-tetrahydro-1-indolizine carboxamide hydrochloride], the concentration for half-maximal inhibition (IC50) in test [1] (Homo sapiens) turned out to be 4.01 nM; on Bcl-2 protein (setting [2]) it was 13 nM.

Turning to `CCn1ccc2cc(N(C(=O)c3cc(-c4cc5c(cc4C(=O)N4Cc6ccccc6C[C@H]4CN4CCOCC4)OCO5)n4ccccc34)c3ccc(O)cc3)ccc21` [Example 60, N-(1-Ethyl-1H-indol-5-yl)-N-(4-hydroxyphenyl)-3-{6-[((3S)-3-(4-morpholinylmethyl)-3,4-dihydro-2(1H)-isoquinolinyl)carbonyl]-1,3-benzodioxol-5-yl}-1-indolizine carboxamide hydrochloride], the results for the IC50 (in test [1] (Homo sapiens); on Bcl-2 protein (setting [2])) were 11.7 nM and 19 nM, respectively.

In the case of `CN1CCc2cc(N(C(=O)c3cc(-c4cc(Br)ccc4C(=O)N4Cc5ccccc5C[C@H]4CN4CCOCC4)n4c3CCCC4)c3ccc(O)cc3)ccc21` [Example 19, 3-{5-Bromo-2-[((3S)-3-(4-morpholinylmethyl)-3,4-dihydro-2(1H)-isoquinolinyl)carbonyl]phenyl}-N-(4-hydroxyphenyl)-N-(1-methyl-2,3-dihydro-1H-indol-5-yl)-5,6,7,8-tetrahydro-1-indolizine carboxamide hydrochloride], the half-maximal inhibitory concentration (IC50) in test [1] (Homo sapiens) was 42.3 nM; at Bcl-2 protein (setting [2]), 27 nM.

On to `O=C(c1cc(-c2cc(Cl)ccc2C(=O)N2Cc3ccccc3C[C@H]2CN2CCOCC2)n2c1CCCC2)N(c1ccc(O)cc1)c1cccc(Cl)c1` [Example 131, 3-(5-Chloro-2-{[(3S)-3-(morpholin-4-ylmethyl)-3,4-dihydroisoquinolin-2(1H)-yl]carbonyl}phenyl)-N-(3-chlorophenyl)-N-(4-hydroxyphenyl)-5,6,7,8-tetrahydroindolizine-1-carboxamide hydrochloride], for which the values for the IC50 (in test [1] (Homo sapiens); on Bcl-2 protein (setting [2])) were 88.4 nM and 30 nM, respectively.

As for `O=C(c1cc(-c2cc(Cl)ccc2C(=O)N2Cc3ccccc3C[C@H]2CN2CCOCC2)n2c1CCCC2)N(c1ccc(O)cc1)c1ccsc1` [Example 85, 3-{5-Chloro-2-[((3S)-3-(4-morpholinylmethyl)-3,4-dihydro-2(1H)-isoquinolinyl)carbonyl]phenyl}-N-(4-hydroxyphenyl)-N-(3-thienyl)-5,6,7,8-tetrahydro-1-indolizine carboxamide hydrochloride], the results for the IC50 (in test [1] (Homo sapiens); at Bcl-2 protein (setting [2])) were 246 nM and 41 nM, respectively.
